Target: PARP7 (Homo sapiens (Human), UniProt Q7Z3E1)
Assay: Enzymatic assay for inhibition of PARP7: TR-FRET displacement of biotinylated Probe A from the TIPARP active site
Assay type: binding
Conditions: Table A-1
Protocol: 20 nL of a dose response curve of each test compound was spotted in black 384-well polystyrene proxiplates (Perkin Elmer) using a Mosquito (TTP Labtech). […] Reactions were incubated at 25° C. for an additional 30 min, then read on an Envision platereader equipped with a LANCE/DELFIA top mirror (Perkin Elmer) using excitation of 320 nm and emission of 615 nm and […] with a 90 μs delay. The ratio of the 665/615 nm emission were calculated for each well to determine the amount of complex of TIPARP and Probe A in each well. […] The Hill Coefficient is normally allowed to float but may also be fixed at 1 in a 3-parameter fit. Y is the % inhibition and x is the compound concentration.

Chain of PARP7 (Q7Z3E1 whole entry): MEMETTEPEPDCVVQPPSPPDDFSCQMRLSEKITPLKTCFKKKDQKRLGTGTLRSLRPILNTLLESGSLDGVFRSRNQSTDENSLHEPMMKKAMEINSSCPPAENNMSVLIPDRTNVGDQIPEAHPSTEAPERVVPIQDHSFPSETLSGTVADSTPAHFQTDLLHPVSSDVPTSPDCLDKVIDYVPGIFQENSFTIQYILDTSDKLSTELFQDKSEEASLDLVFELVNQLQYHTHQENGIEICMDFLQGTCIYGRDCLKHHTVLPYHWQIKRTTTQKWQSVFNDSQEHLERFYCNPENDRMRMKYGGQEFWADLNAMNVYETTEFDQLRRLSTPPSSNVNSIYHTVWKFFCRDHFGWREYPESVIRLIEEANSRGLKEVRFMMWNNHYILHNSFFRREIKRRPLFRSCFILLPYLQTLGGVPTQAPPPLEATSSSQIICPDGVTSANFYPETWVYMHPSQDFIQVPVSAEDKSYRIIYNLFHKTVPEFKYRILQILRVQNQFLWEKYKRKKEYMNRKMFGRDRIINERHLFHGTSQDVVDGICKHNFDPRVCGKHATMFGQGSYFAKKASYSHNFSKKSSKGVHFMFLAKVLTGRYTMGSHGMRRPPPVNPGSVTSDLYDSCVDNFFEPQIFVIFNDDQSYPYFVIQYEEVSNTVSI

| SMILES | IC50 [nM] |
| --- | --- |
| N#Cc1ccc(N2CCN(C(=O)C[C@@H]3CC[C@@H](COc4cn[nH]c(=O)c4Cl)O3)CC2)nc1 (single isomer, unassigned) [Example 582 Isomer A] | ≥ 1000 |
| N#Cc1ccc(N2CCN(C(=O)C[C@H]3CC[C@H](COc4cn[nH]c(=O)c4Cl)O3)CC2)nc1 (single isomer, unassigned) [Example 582 Isomer B] | 100 to 1000 |
| N#Cc1ccc(N2CCN(C(=O)C[C@@H]3CCC[C@@H](COc4cn[nH]c(=O)c4C(F)(F)F)O3)CC2)nc1 (single isomer, unassigned) [Example 583 Isomer A] | < 100 |
| N#Cc1ccc(N2CCN(C(=O)C[C@H]3CCC[C@H](COc4cn[nH]c(=O)c4C(F)(F)F)O3)CC2)nc1 (single isomer, unassigned) [Example 583 Isomer B] | ≥ 1000 |
| CC[C@@H](COCCC(=O)N1CCN(c2ncc(Cl)cn2)CC1)Oc1cn[nH]c(=O)c1C(F)(F)F (single isomer, unassigned) [Example 591 Isomer A] | < 100 |
| N#Cc1ccc(N2CCN(C(=O)C[C@H]3CC[C@@H]([C@H]4c5ccccc5CN4c4cn[nH]c(=O)c4C(F)(F)F)O3)CC2)nc1 (single isomer, unassigned) [Example 612 Isomer A] | < 100 |
| N#Cc1ccc(N2CCN(C(=O)C[C@H]3CC[C@@H]([C@@H]4c5ccccc5CN4c4cn[nH]c(=O)c4C(F)(F)F)O3)CC2)nc1 (single isomer, unassigned) [Example 612 Isomer B] | < 100 |
| N#Cc1ccc(N2CCN(C(=O)C[C@H]3CC[C@H]([C@@H]4c5ccccc5CN4c4cn[nH]c(=O)c4C(F)(F)F)O3)CC2)nc1 (single isomer, unassigned) [Example 612 Isomer C] | ≥ 1000 |
| N#Cc1ccc(N2CCN(C(=O)C[C@@H]3CC[C@@H]([C@H]4c5ccccc5CN4c4cn[nH]c(=O)c4C(F)(F)F)O3)CC2)nc1 (single isomer, unassigned) [Example 612 Isomer D] | ≥ 1000 |
| O=C(CCOC[C@@H](Nc1cn[nH]c(=O)c1C(F)(F)F)[C@@H]1CCOC1)N1CCN(c2ncc(C(F)(F)F)cn2)CC1 (single isomer, unassigned) [Example 614 Isomer A] | ≥ 1000 |
| O=C(CCOC[C@H](Nc1cn[nH]c(=O)c1C(F)(F)F)[C@H]1CCOC1)N1CCN(c2ncc(C(F)(F)F)cn2)CC1 (single isomer, unassigned) [Example 614 Isomer B] | < 100 |
| C[C@@H](COC[C@H](N)CC(=O)N1CCN(c2ncc(C(F)(F)F)cn2)CC1)Nc1cn[nH]c(=O)c1C(F)(F)F (single isomer, unassigned) [Example 617 Isomer A] | < 100 |
| C[C@@H](COC[C@@H](N)CC(=O)N1CCN(c2ncc(C(F)(F)F)cn2)CC1)Nc1cn[nH]c(=O)c1C(F)(F)F (single isomer, unassigned) [Example 617 Isomer B] | < 100 |
| C[C@@H](COCCC(=O)N1CCN(c2ncc(C(F)(F)F)cn2)C[C@@H]1C)Nc1cn[nH]c(=O)c1C(F)(F)F (single isomer, unassigned) [Example 619 Isomer A] | < 100 |
| C[C@@H]1CN(c2ncc(C(F)(F)F)cn2)CCN1C(=O)CCOC[C@H](C)Nc1cn[nH]c(=O)c1C(F)(F)F (single isomer, unassigned) [Example 619 Isomer B] | < 100 |
| COC[C@H](COCCC(=O)N1CCN(c2ncc(C(F)(F)F)cn2)CC1)Sc1cn[nH]c(=O)c1C(F)(F)F (single isomer, unassigned) [Example 692] | 100 to 1000 |
| N#Cc1ccc(N2CCN(C(=O)C/C=C\OC[C@@H]3c4ccccc4CN3c3cn[nH]c(=O)c3C(F)(F)F)CC2)nc1 (single isomer, unassigned; isomer a) [Example 79 Isomer A] | < 100 |
| O=C(COC[C@@H]1CCCN1c1cn[nH]c(=O)c1C(F)(F)F)N[C@H]1CC[C@H](Nc2ccccn2)CC1 (single isomer, unassigned; isomer a) [Example 80 Isomer A] | 100 to 1000 |
| O=C(CCOC[C@@H]1CCCN1c1cn[nH]c(=O)c1C(F)(F)F)NC1CCC(Nc2ccccn2)CC1 (single isomer, unassigned; isomer a) [Example 81 Isomer A] | 100 to 1000 |
| N#Cc1ccc(N2CCN(C(=O)[C@H]3CC[C@H](OC[C@@H]4CCCN4c4cn[nH]c(=O)c4C(F)(F)F)CC3)CC2)nc1 (single isomer, unassigned; isomer a) [Example 82 Isomer A] | < 100 |

| SMILES | IC50 [nM] |
| --- | --- |
| N#Cc1ccc(N2CCN(C(=O)C3CC(OC[C@@H]4CCCN4c4cn[nH]c(=O)c4C(F)(F)F)C3)CC2)nc1 (single isomer, unassigned; isomer a) [Example 95 Isomer A] | < 100 |
| N#Cc1ccc(N2CCN(C(=O)C/C=C\OC[C@H]3c4ccccc4CN3c3cn[nH]c(=O)c3C(F)(F)F)CC2)nc1 (single isomer, unassigned; isomer b) [Example 79 Isomer B] | < 100 |
| O=C(COC[C@@H]1CCCN1c1cn[nH]c(=O)c1C(F)(F)F)NC1CCC(Nc2ccccn2)CC1 (single isomer, unassigned; isomer b) [Example 80 Isomer B] | 100 to 1000 |
| O=C(CCOC[C@@H]1CCCN1c1cn[nH]c(=O)c1C(F)(F)F)N[C@H]1CC[C@@H](Nc2ccccn2)CC1 (single isomer, unassigned; isomer b) [Example 81 Isomer B] | ≥ 1000 |
| N#Cc1ccc(N2CCN(C(=O)[C@H]3CC[C@@H](OC[C@@H]4CCCN4c4cn[nH]c(=O)c4C(F)(F)F)CC3)CC2)nc1 (single isomer, unassigned; isomer b) [Example 82 Isomer B] | 100 to 1000 |
| O=C(CCOC[C@@H](Nc1cn[nH]c(=O)c1C(F)(F)F)[C@H]1CCOC1)N1CCN(c2ncc(C(F)(F)F)cn2)CC1 (single isomer, unassigned; isomer c) [Example 614 Isomer C] | < 100 |
| N#Cc1ccc(N2CC3CN(C(=O)CCOC[C@@H]4CCCN4c4cn[nH]c(=O)c4C(F)(F)F)CC3C2)nc1 (stereo in doubt) [Example 113, (S)-6-[5-(3-[[1-[6-oxo-5-(trifluoromethyl)-1,6-dihydropyridazin-4-yl]pyrrolidin-2-yl]methoxy]propanoyl)-octahydropyrrolo[3,4-c]pyrrol-2-yl]pyridine-3-carbonitrile] | < 100 |
| CC(=O)N1CCC(Oc2cc3c(cc2F)CN(c2cn[nH]c(=O)c2C(F)(F)F)C3)CC1 [Example 1, 5-[5-[(1-acetylpiperidin-4-yl)oxy]-6-fluoro-2,3-dihydro-1 H-isoindol-2-yl]-4-(trifluoromethyl)-2,3-dihydropyridazin-3-one] | < 100 |
| CC(=O)N1CCC(Oc2ccc(F)c3c2CN(c2cn[nH]c(=O)c2C(F)(F)F)C3)CC1 [Example 2, 5-[4-[(1-acetylpiperidin-4-yl)oxy]-7-fluoro-2,3-dihydro-1H-isoindol-2-yl]-4-(trifluoromethyl)-2,3-dihydropyridazin-3-one] | < 100 |
| O=c1[nH]ncc(N2Cc3cc(OC4CCNCC4)cc(F)c3C2)c1C(F)(F)F [Example 3, 5-[4-fluoro-6-(piperidin-4-yloxy)-2,3-dihydro-1H-isoindol-2-yl]-4-(trifluoromethyl)-2,3-dihydropyridazin-3-one; formic acid] | < 100 |
| CC(=O)N1CCC(Oc2cc(F)c3c(c2)CN(c2cn[nH]c(=O)c2C(F)(F)F)C3)CC1 [Example 4, 5-[6-[(1-acetylpiperidin-4-yl)oxy]-4-fluoro-2,3-dihydro-1H-isoindol-2-yl]-4-(trifluoromethyl)-2,3-dihydropyridazin-3-one] | < 100 |
| CC(=O)N1CCC(Oc2cc3c(cc2F)CN(c2cn[nH]c(=O)c2C(F)(F)F)C3C)CC1 (stereo not drawn) [Example 5, 5-[6-[(1-acetylpiperidin-4-yl)oxy]-5-fluoro-1-methyl-2,3-dihydro-1H-isoindol-2-yl]-4-(trifluoromethyl)-2,3-dihydropyridazin-3-one] | 100 to 1000 |
| CN1CCC(Oc2ccc3c(n2)CN(c2cn[nH]c(=O)c2C(F)(F)F)C3)CC1 [Example 6, 5-[2-[(1-methylpiperidin-4-yl)oxy]-5H,6H,7H-pyrrolo[3,4-b]pyridin-6-yl]-4-(trifluoromethyl)-2,3-dihydropyridazin-3-one] | 100 to 1000 |
| O=c1[nH]ncc(N2Cc3cc(OC4CCNCC4)cnc3C2)c1C(F)(F)F [Example 7, 5-[3-(piperidin-4-yloxy)-5H,6H,7H-pyrrolo[3,4-b]pyridin-6-yl]-4-(trifluoromethyl)-2,3-dihydropyridazin-3-one] | 100 to 1000 |
| CC(=O)N1CCC(Oc2cnc3c(c2)CN(c2cn[nH]c(=O)c2C(F)(F)F)C3)CC1 [Example 8, 5-[3-[(1-acetylpiperidin-4-yl)oxy]-5H,6H,7H-pyrrolo[3,4-b]pyridin-6-yl]-4-(trifluoro-methyl)-2,3-dihydropyridazin-3-one] | 100 to 1000 |
| O=c1[nH]ncc(N2Cc3nccc(OC4CCNCC4)c3C2)c1C(F)(F)F [Example 9, 5-[4-(piperidin-4-yloxy)-5H,6H,7H-pyrrolo[3,4-b]pyridin-6-yl]-4-(trifluoromethyl)-2,3-dihydropyridazin-3-one] | 100 to 1000 |
| O=c1[nH]ncc(N2Cc3nccc(OCCN4CCOCC4)c3C2)c1C(F)(F)F [Example 10, 5-[4-[2-(morpholin-4-yl)ethoxy]-5H,6H,7H-pyrrolo[3,4-b]pyridin-6-yl]-4-(trifluoromethyl)-2,3-dihydropyridazin-3-one] | 100 to 1000 |
| COc1cc2c(cn1)CN(c1cn[nH]c(=O)c1C(F)(F)F)C2 [Example 11, 5-[6-methoxy-1H,2H,3H-pyrrolo[3,4-c]pyridin-2-yl]-4-(trifluoromethyl)-2,3-dihydropyridazin-3-one] | < 100 |
| O=c1[nH]ncc(N2Cc3cnc(OC4CCNCC4)cc3C2)c1C(F)(F)F [Example 12, 5-[6-(piperidin-4-yloxy)-1H,2H,3H-pyrrolo[3,4-c]pyridin-2-yl]-4-(trifluoromethyl)-2,3-dihydropyridazin-3-one] | 100 to 1000 |
